{
  "source": "paper PMC4948780",
  "about": "“PARP Inhibitors in Clinical Use Induce Genomic Instability in Normal Human Cells” (PLoS ONE, 2016)",
  "key": {"[1]": {"test_system": "EBV-BL", "test": "Sister chromatid exchange (SCE) assay, BrdU differential staining", "format": "cell-based, human", "source_text": "(§1) Human mammary epithelial cell lines used included non-tumorigenic diploid MCF-10A, HMEC-hTERT and tumorigenic MDA-MB-468 (basal) and MCF-7 (luminal). […] Blood samples were obtained from normal donor participants. The participants provided written informed consent to IRB protocol #95–054 approved by the Institutional Review Board at MSKCC. The original signed consent is then sent to the research participant’s medical record and a copy of the consent is given to the participant. The EBV-transformed B-lymphocyte cell line (EBV-BL) was generated by transformation of peripheral blood mononuclear cells (PBMC) with the B95.8 strain of EBV, as previously described. Primary T cells were generated from PBMC from two normal donors by non-specific activation with phytohemagglutinin and cultured in RPMI1640 and human serum AB for 4–14 days before use. E14 mES cell line was provided by M. Hooper, Brca1^-/- 236.44 mES cell line was provided by B. H. Koller, Brca2^lex1/lex2 mES cell line was provided by P. Hasty and Lexicon Genetics. E14 wild-type, Brca1^-/- 236.44, and Brca2^lex1/lex2 mES cell lines were cultured in standard ES media. Brca1^-/- 236.44 cells express a BRCA1 peptide deleted for sequences encoded by exon 11 [52], while Brca2^lex1/lex2 cells express a BRCA2 peptide deleted for the terminal exon 27 [53]. Olaparib was synthesized in the MSKCC Organic chemistry core facility. Veliparib and BSI-201 were purchased from Chemie Tek. The compounds were dissolved in DMSO and PBS. For clonogenic survival assays, MCF-10A (1000 cells), HMEC-hTERT (1000 cells), MDA-MB-468 (1500 cells) and mouse ES cell (2000 cells) were seeded, vehicle control or inhibitors were added at the indicated concentration 24 hours after seeding and changed every three days for continuous treatment. At 7–14 days, colonies were fixed with methanol and stained with Giemsa. For EBV-BL (6 × 10^6) and primary T cells (3.6 × 10^6) were continuously exposed to the indicated concentration of drug for 10 days at 0.6 × 10^6 cells/ml. Viable cells were scored by trypan blue exclusion.\n(§2) To prepare metaphase spreads, exponentially growing cells were treated with 0.1–0.3 μg/ml of colcemid for 1–6 hr. Cells were collected and incubated in hypotonic solution (0.56% KCl), fixed in methanol: acetic acid (3:1), spotted to slides and air-dried. To measure chromosomal aberrations, the slides were stained with 2% Giemsa/Sorensen’s buffer. To visualize SCEs, the doubling time for each cell type was determined. Cells were incubated with 10 μM BrdU for two cell cycles. After metaphase spreads were prepared, the slides were treated with 0.5 μg/ml Hoechst 33258. The slides were exposed to black light for 20–60 min, incubated at 60°C for 2 hr, and stained in 4–10% Giemsa/Sorensen’s buffer."}, "[2]": {"test_system": "MCF-10A", "test": "Sister chromatid exchange (SCE) assay, BrdU differential staining", "format": "cell-based, human", "source_text": "as §1, §2"}, "[3]": {"test_system": "MCF-10A", "test": "Clonogenic survival assay", "format": "cell-based, human", "protocol": "Clonogenic survival was assessed by colony counting at 9 days. […] Viable cells were scored and enumerated by trypan blue exclusion at 7 days. Means with SD are shown (MCF-10A: n = 3, primary T cell 1: n = 2). […] Fold increases of SCE per chromosome compared with no treatment or 0.5 μM cisplatin are shown for each cell type. Approximately 50 metaphases were counted for each cell. Error bars depict the mean with SD. Asterisks designate statistical significance for unpaired t-test at P < 0.0001. C. […] One hundred metaphases were counted for each exposure. Fold increases of chromatid-type aberrations per chromosome compared with no treatment or 0.5 μM cisplatin are shown for each cell type. The y-axis is the number of total chromatid-type aberrations per chromosome for each metaphase counted. Error bars indicate mean with SEM. The P-values were calculated using unpaired t-test.\nas §1"}, "[4]": {"test_system": "EBV-BL", "test": "Survival, trypan blue exclusion test of cell viability", "format": "cell-based, human", "conditions": "Homo sapiens, 240 h, continuous exposure 10 days, trypan blue exclusion", "source_text": "as §1, with “Olaparib was synthesized in the MSKCC Organic chemistry core facility.” left out"}, "[5]": {"test_system": "WT E14 mES cells", "test": "Clonogenic survival assay, mES cells", "format": "cell-based", "conditions": "Mus musculus, read-out: IC50 (clonogenic survival)", "source_text": "as §1, with “Olaparib was synthesized in the MSKCC Organic chemistry core facility.” left out"}, "[6]": {"test_system": "Brca1^-/- 236.44 mES cells", "test": "Clonogenic survival assay, mES cells", "format": "cell-based, mouse", "conditions": "for IC50: Mus musculus, read-out: IC50 (clonogenic survival)", "source_text": "as §1, with “Olaparib was synthesized in the MSKCC Organic chemistry core facility.” left out"}, "[7]": {"test_system": "Brca2^lex1/lex2 mES cells", "test": "Clonogenic survival assay, mES cells", "format": "cell-based, mouse", "conditions": "for IC50: Mus musculus, read-out: IC50 (clonogenic survival)", "source_text": "as §1, with “Olaparib was synthesized in the MSKCC Organic chemistry core facility.” left out"}, "[8]": {"test_system": "cellular PARP activity in EBV-BL", "test": "Cellular PARP activity assay (PAR levels, HT PARP In vivo Pharmacodynamic Assay)", "format": "cell-based, human", "protocol": "Cellular PARP activity was determined by measuring net PAR expression using HT PARP In vivo Pharmacodynamic Assay (Trevigen) as specified by the manufacturer. PAR levels in samples were calculated using standard curves and normalized using protein concentration. Protein concentration was measured with Lowry protocol using RC DC Protein Assay Kits (Bio-Rad)."}, "[9]": {"test_system": "BRCA-deficient mES cells", "set-up": "method as in PMID 15829967", "conditions": "cited from earlier work"}, "[10]": {"test_system": "primary T cell 1", "test": "Sister chromatid exchange (SCE) assay, BrdU differential staining", "format": "cell-based, human", "conditions": "0.5 μM cisplatin alone, first 24hr", "source_text": "as §1, §2"}, "[11]": {"test_system": "primary T cell 1", "test": "Chromosomal aberrations on metaphase spreads (Giemsa)", "format": "cell-based, human", "conditions": "0.5 μM cisplatin alone, 24 hr", "protocol": "as §2"}, "[12]": {"test_system": "primary T cell 1", "test": "Survival, trypan blue exclusion", "format": "cell-based, human", "conditions": "first 24 hr, trypan blue exclusion at 7 days, read-out: IC50 (survival), cisplatin alone", "protocol": "A. […] Viable cells were scored and enumerated by trypan blue exclusion at 7 days. […] Approximately 50 metaphases were counted for each cell. Error bars depict the mean with SD. Asterisks designate statistical significance for unpaired t-test at P < 0.0001. C. […] One hundred metaphases were counted for each exposure. […] The y-axis is the number of total chromatid-type aberrations per chromosome for each metaphase counted. Error bars indicate mean with SEM. The P-values were calculated using unpaired t-test."}, "[13]": {"conditions": "Homo sapiens, continuous exposure, clonogenic survival assay, read-out: IC50 (cell survival)"}},
  "note": "Several values for one entry are separate records, joined by “and”; a condition that tells them apart may be missing. Identical values can stand only once. Like-named read-outs stand apart in the source and are kept apart here.",
  "data": [
    {"smiles": "NC(=O)c1ccc(I)c([N+](=O)[O-])c1", "note": "[BSI-201]", "values": [
      {"measurement": "Mean no. SCE / metaphase ± SD", "setting": "[1]; 20 μM", "value": "8.4 ± 3.6"},
      {"measurement": "Mean no. SCE / metaphase ± SD", "setting": "[1]; 40 μM", "value": "9.4 ± 2.9"},
      {"measurement": "Mean no. SCE / metaphase ± SD", "setting": "[1]; 80 μM", "value": "16.6 ± 4.2"},
      {"measurement": "Mean no. SCE / metaphase ± SD", "setting": "[2]; 20 μM", "value": "7.9 ± 2.9"},
      {"measurement": "Mean no. SCE / metaphase ± SD", "setting": "[2]; 40 μM", "value": "8.6 ± 2.9"},
      {"measurement": "Mean no. SCE / metaphase ± SD", "setting": "[2]; 80 μM", "value": "9.4 ± 2.6"},
      {"measurement": "IC50", "setting": "[3]; [13]", "value": 56, "unit": "µM"},
      {"measurement": "IC50", "setting": "[4]; EBV-BL, read-out: IC50 (cell survival)", "value": 48.9, "unit": "µM"},
      {"measurement": "IC50", "setting": "[5]; wild-type E14 mES cells", "value": 111, "unit": "µM"},
      {"measurement": "IC50", "setting": "[6]; Brca1^-/- 236.44 mES cells", "value": 74, "unit": "µM"},
      {"measurement": "enhanced sensitivity of cells lacking wild-type BRCA1 vs wild-type cells", "setting": "[6]; ratio of IC50, wild-type / Brca1^-/- 236.44", "value": 1.5, "unit": "fold"},
      {"measurement": "IC50", "setting": "[7]; Brca2^lex1/lex2 mES cells", "value": 70, "unit": "µM"},
      {"measurement": "enhanced sensitivity of cells lacking wild-type BRCA2 vs wild-type cells", "setting": "[7]; ratio of IC50, wild-type / Brca2^lex1/lex2", "value": 1.6, "unit": "fold"},
      {"measurement": "decrease of PARP activity", "setting": "[8]; EBV-BL, 24 hr, BSI-201 treated, vs untreated cells", "value": "~ 60%"}
    ]},
    {"smiles": "O=C1CCC(=O)N1c1cc(Cc2n[nH]c(=O)c3ccccc23)ccc1F", "note": "[KU0058684]", "values": [
      {"measurement": "sensitivity of BRCA-deficient mES cells", "setting": "[9]", "value": "marked hypersensitivity"}
    ]},
    {"smiles": "O=C(c1cc(Cc2n[nH]c(=O)c3ccccc23)ccc1F)N1CCCNCC1", "note": "[KU0058948]", "values": [
      {"measurement": "sensitivity of BRCA-deficient mES cells", "setting": "[9]", "value": "marked hypersensitivity"}
    ]},
    {"smiles": "N.N.[Cl][Pt][Cl]", "note": "[cisplatin]", "values": [
      {"measurement": "Fold increase of SCE per chromosome compared with no treatment", "setting": "[2]; 0.5 μM cisplatin alone, 30 hr", "value": 6.3, "unit": "fold"},
      {"measurement": "Mean no. SCE / chromosome ± SD", "setting": "[2]; 0.5 μM cisplatin alone, 30 hr", "value": "1.03 ± 0.12"},
      {"measurement": "Mean no. SCE / metaphase ± SD", "setting": "[2]; 0.5 μM cisplatin alone, 30 hr", "value": "47.7 ± 5.5"},
      {"measurement": "Fold increase of SCE per chromosome compared with no treatment", "setting": "[10]", "value": 3.8, "unit": "fold"},
      {"measurement": "Mean no. SCE / chromosome ± SD", "setting": "[10]", "value": "0.79 ± 0.23"},
      {"measurement": "Mean no. SCE / metaphase ± SD", "setting": "[10]", "value": "36.6 ± 10.8"},
      {"measurement": "Fold increase of chromatid-type aberrations per chromosome compared with no treatment", "setting": "[11]", "value": 2, "unit": "fold"},
      {"measurement": "total chromatid-type aberrations / metaphase (mean ± SEM)", "setting": "[11]", "value": "0.38 ± 0.07"},
      {"measurement": "chromatid-type gap/break", "setting": "[11]; 100 metaphases", "value": 36},
      {"measurement": "chromatid-type radial chromosome", "setting": "[11]; 100 metaphases", "value": 1},
      {"measurement": "chromatid-type telomere association", "setting": "[11]; 100 metaphases", "value": 0},
      {"measurement": "chromosome-type dicentric", "setting": "[11]; 100 metaphases", "value": 1},
      {"measurement": "chromosome-type gap/break", "setting": "[11]; 100 metaphases", "value": 6},
      {"measurement": "total chromatid-type aberrations", "setting": "[11]; 100 metaphases", "value": 38},
      {"measurement": "IC50", "setting": "[3]; cisplatin first 30 hr, colony counting at 9 days, read-out: IC50 (survival), cisplatin alone", "value": 3.4, "unit": "µM"},
      {"measurement": "IC50", "setting": "[12]", "value": 1.74, "unit": "µM"}
    ]},
    {"smiles": "C[C@]1(c2nc3c(C(N)=O)cccc3[nH]2)CCCN1", "note": "[veliparib]", "values": [
      {"measurement": "Mean no. SCE / metaphase ± SD", "setting": "[1]; 1.5 μM", "value": "18.7 ± 4.6"},
      {"measurement": "Mean no. SCE / metaphase ± SD", "setting": "[1]; 10 μM", "value": "32.2 ± 7.2"},
      {"measurement": "Mean no. SCE / metaphase ± SD", "setting": "[2]; 1.5 μM", "value": "26.9 ± 6.6"},
      {"measurement": "Mean no. SCE / metaphase ± SD", "setting": "[2]; 10 μM", "value": "51.3 ± 9.4"},
      {"measurement": "IC50", "setting": "[3]; [13]", "value": 69.1, "unit": "µM"},
      {"measurement": "IC50", "setting": "[4]; read-out: IC50 (cell survival), EBV-BL", "value": 42.5, "unit": "µM"},
      {"measurement": "IC50", "setting": "[5]", "value": 1.6, "unit": "µM"},
      {"measurement": "IC50", "setting": "[6]", "value": 0.0097, "unit": "µM"},
      {"measurement": "IC50", "setting": "[7]", "value": 0.171, "unit": "µM"},
      {"measurement": "decrease of PARP activity", "setting": "[8]", "value": "~ 98% and > 99%"}
    ]}
  ]
}
